# Reference: ChEMBL document CHEMBL1201862, “PubChem BioAssay data set” (2004)
#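 Five compound concentrations were applied to cells in 96-well plates for 48 hours; endpoints were derived by simple linear interpolation of the resulting dose-response curve. GI50 = concentration required for 50% inhibition of growth.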 Activity calls are given as the source filed them. No stated cut-off is given here; in the data, active = GI50 up to about 1.1 µM and inactive = higher.
# How the values were obtained:
# Experiment in all cases: growth of human tumour cells (NCI), 48 h
# [1] = system: 786-0
# [2] = system: A498
# [3] = system: A549
# [4] = system: ACHN
# [5] = system: CAKI-1
# [6] = system: COLO 205
# [7] = system: DLD-1
# [8] = system: DMS-114
# [9] = system: DMS-273
# [10] = system: EKVX
# [11] = system: HCC 2998
# [12] = system: HCT-116
# [13] = system: HCT-15
# [14] = system: HOP-18
# [15] = system: HOP-62
# [16] = system: HOP-92
# [17] = system: HT-29
# [18] = system: IGROV-1
# [19] = system: K562
# [20] = system: KM-20L2
# [21] = system: KM12
# [22] = system: LOX IMVI
# [23] = system: LXFL 529
# [24] = system: M14
# [25] = system: M19-MEL
# [26] = system: MOLT-4
# [27] = system: Malme-3M
# [28] = system: NCI-H23
# [29] = system: NCI-H460
# [30] = system: NCI-H522
# [31] = system: OVCAR-3
# [32] = system: OVCAR-4
# [33] = system: OVCAR-5
# [34] = system: OVCAR-8
# [35] = system: RPMI-8226
# [36] = system: RXF 393
# [37] = system: SF-295
# [38] = system: SF-539
# [39] = system: SK-MEL-28
# [40] = system: SK-MEL-2
# [41] = system: SK-MEL-5
# [42] = system: SK-OV-3
# [43] = system: SN12C
# [44] = system: SNB-19
# [45] = system: SNB-75
# [46] = system: SNB-78
# [47] = system: SW-620
# [48] = system: TK-10
# [49] = system: U-251
# [50] = system: UACC-257
# [51] = system: UACC-62
# [52] = system: UO-31
# [53] = system: XF498
# [54] = system: CCRF-CEM
# [55] = system: HL-60
# [56] = system: NCI-H226
# [57] = system: SF-268
# [58] = system: SR
smiles,measurement,setting,value
NC(=O)C(=Cc1ccc(CP(=O)(O)O)cc1)C(N)=O,GI50,[1],> 100 µM (inactive)
same,GI50,[2],> 100 µM (inactive)
same,GI50,[3],> 100 µM (inactive)
same,GI50,[4],> 100 µM (inactive)
same,GI50,[5],> 100 µM (inactive)
same,GI50,[6],> 100 µM (inactive)
same,GI50,[7],> 100 µM (inactive)
same,GI50,[8],> 100 µM (inactive)
same,GI50,[9],> 100 µM (inactive)
same,GI50,[10],> 100 µM (inactive)
same,GI50,[11],> 100 µM (inactive)
same,GI50,[12],> 100 µM (inactive)
same,GI50,[13],> 100 µM
same,GI50,[14],> 100 µM (inactive)
same,GI50,[15],> 100 µM (inactive)
same,GI50,[16],> 100 µM (inactive)
same,GI50,[17],> 100 µM (inactive)
same,GI50,[18],> 100 µM (inactive)
same,GI50,[19],> 100 µM (inactive)
same,GI50,[20],> 100 µM (inactive)
same,GI50,[21],> 100 µM (inactive)
same,GI50,[22],> 100 µM (inactive)
same,GI50,[23],> 100 µM (inactive)
same,GI50,[24],> 100 µM (inactive)
same,GI50,[25],> 100 µM (inactive)
same,GI50,[26],> 100 µM (inactive)
same,GI50,[27],> 100 µM (inactive)
same,GI50,[28],> 100 µM (inactive)
same,GI50,[29],> 100 µM (inactive)
same,GI50,[30],> 100 µM (inactive)
same,GI50,[31],> 100 µM (inactive)
same,GI50,[32],> 100 µM (inactive)
same,GI50,[33],> 100 µM (inactive)
same,GI50,[34],> 100 µM (inactive)
same,GI50,[35],> 100 µM (inactive)
same,GI50,[36],> 100 µM (inactive)
same,GI50,[37],> 100 µM (inactive)
same,GI50,[38],> 100 µM (inactive)
same,GI50,[39],> 100 µM (inactive)
same,GI50,[40],> 100 µM (inactive)
same,GI50,[41],> 100 µM (inactive)
same,GI50,[42],> 100 µM (inactive)
same,GI50,[43],> 100 µM (inactive)
same,GI50,[44],> 100 µM (inactive)
same,GI50,[45],> 100 µM (inactive)
same,GI50,[46],> 100 µM (inactive)
same,GI50,[47],> 100 µM (inactive)
same,GI50,[48],> 100 µM (inactive)
same,GI50,[49],> 100 µM (inactive)
same,GI50,[50],> 100 µM (inactive)
same,GI50,[51],> 100 µM (inactive)
same,GI50,[52],> 100 µM (inactive)
same,GI50,[53],> 100 µM (inactive)
CC1CN1P1(N2CC2C)=NP(N2CC2C)(N2CC2C)=NP(N2CC2C)(N2CC2C)=N1 (stereo not given),GI50,[1],> 50 µM (inactive)
same,GI50,[2],> 50 µM (inactive)
same,GI50,[3],> 50 µM (inactive)
same,GI50,[4],> 50 µM (inactive)
same,GI50,[5],> 50 µM (inactive)
same,GI50,[54],> 50 µM (inactive)
same,GI50,[6],> 50 µM (inactive)
same,GI50,[7],> 50 µM (inactive)
same,GI50,[9],> 50 µM (inactive)
same,GI50,[10],> 50 µM (inactive)
same,GI50,[11],> 50 µM (inactive)
same,GI50,[12],> 50 µM (inactive)
same,GI50,[13],> 50 µM
same,GI50,[55],> 50 µM (inactive)
same,GI50,[14],> 50 µM (inactive)
same,GI50,[16],> 50 µM (inactive)
same,GI50,[17],> 50 µM (inactive)
same,GI50,[18],> 50 µM (inactive)
same,GI50,[19],> 50 µM (inactive)
same,GI50,[20],> 50 µM (inactive)
same,GI50,[23],> 50 µM (inactive)
same,GI50,[24],> 50 µM (inactive)
same,GI50,[25],> 50 µM (inactive)
same,GI50,[26],> 50 µM (inactive)
same,GI50,[27],> 50 µM (inactive)
same,GI50,[56],> 50 µM (inactive)
same,GI50,[28],> 50 µM (inactive)
same,GI50,[29],> 50 µM (inactive)
same,GI50,[30],> 50 µM (inactive)
same,GI50,[31],> 50 µM (inactive)
same,GI50,[32],> 50 µM (inactive)
same,GI50,[34],> 50 µM (inactive)
same,GI50,[35],> 50 µM (inactive)
same,GI50,[36],> 50 µM (inactive)
same,GI50,[57],> 50 µM (inactive)
same,GI50,[37],> 50 µM (inactive)
same,GI50,[38],> 50 µM (inactive)
same,GI50,[39],> 50 µM (inactive)
same,GI50,[41],> 50 µM (inactive)
same,GI50,[42],> 50 µM (inactive)
same,GI50,[43],> 50 µM (inactive)
same,GI50,[44],> 50 µM (inactive)
same,GI50,[45],> 50 µM (inactive)
same,GI50,[58],> 50 µM (inactive)
same,GI50,[47],> 50 µM (inactive)
same,GI50,[48],> 50 µM (inactive)
same,GI50,[49],> 50 µM (inactive)
same,GI50,[52],> 50 µM (inactive)
same,GI50,[53],> 50 µM (inactive)
CC12OC(=O)C(C#N)C1(C)C1C(=O)CCCC12 (stereo not given),GI50,[1],> 100 µM (inactive)
same,GI50,[3],> 100 µM (inactive)
same,GI50,[4],> 100 µM (inactive)
same,GI50,[54],> 100 µM (inactive)
same,GI50,[6],> 100 µM (inactive)
same,GI50,[7],> 100 µM (inactive)
same,GI50,[8],> 100 µM (inactive)
same,GI50,[9],> 100 µM (inactive)
same,GI50,[10],> 100 µM (inactive)
same,GI50,[12],> 100 µM (inactive)
same,GI50,[13],> 100 µM
same,GI50,[55],> 100 µM (inactive)
same,GI50,[14],> 100 µM (inactive)
same,GI50,[18],> 100 µM (inactive)
same,GI50,[19],> 100 µM (inactive)
same,GI50,[20],> 100 µM (inactive)
same,GI50,[21],> 100 µM (inactive)
same,GI50,[22],> 100 µM (inactive)
same,GI50,[23],> 100 µM (inactive)
same,GI50,[24],> 100 µM (inactive)
same,GI50,[25],> 100 µM (inactive)
same,GI50,[26],> 100 µM (inactive)
same,GI50,[27],> 100 µM (inactive)
same,GI50,[56],> 100 µM (inactive)
same,GI50,[28],> 100 µM (inactive)
same,GI50,[29],> 100 µM (inactive)
same,GI50,[31],> 100 µM (inactive)
same,GI50,[32],> 100 µM (inactive)
same,GI50,[33],> 100 µM (inactive)
same,GI50,[34],> 100 µM (inactive)
same,GI50,[35],> 100 µM (inactive)
same,GI50,[36],> 100 µM (inactive)
same,GI50,[57],> 100 µM (inactive)
same,GI50,[37],> 100 µM (inactive)
same,GI50,[38],> 100 µM (inactive)
same,GI50,[39],> 100 µM (inactive)
same,GI50,[40],> 100 µM (inactive)
same,GI50,[41],> 100 µM (inactive)
same,GI50,[42],> 100 µM (inactive)
same,GI50,[43],> 100 µM (inactive)
same,GI50,[44],> 100 µM (inactive)
same,GI50,[45],> 100 µM (inactive)
same,GI50,[47],> 100 µM (inactive)
same,GI50,[48],> 100 µM (inactive)
same,GI50,[49],> 100 µM (inactive)
same,GI50,[51],> 100 µM (inactive)
same,GI50,[52],> 100 µM (inactive)
same,GI50,[53],> 100 µM (inactive)
